Measurements from PubChem BioAssay AID330 (DTP/NCI, 2004).
“And” between values parts separate entries of the source, which are not always exact repeats. Equal entries are not always repeated. Inconclusive results and toxic doses are left out.

Test system: P388 leukemia ip, CD2F1 mice, survival T/C
Experiment: NCI In Vivo Anticancer Drug Screen. Data for tumor model P388 Leukemia (intraperitoneal) in CD2F1 (CDF1) mice
Details: endpoint: median survival time, higher = longer survival
How it was run: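 Mice carrying the transplanted tumor received test compound or vehicle. Survival was recorded in each group, and the value is the treated-group measurement divided by that of the vehicle-treated control group.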

[1] = dose: 50.0 mg/kg/injection, schedule: Q01DX009 (ip), vehicle: Klucel (hydroxypropylcellulose) (HPC)
[2] = dose: 100.0 mg/kg/injection, schedule: Q01DX009 (ip), vehicle: Klucel (hydroxypropylcellulose) (HPC)
[3] = dose: 50.0 mg/kg/injection, schedule: Q01DX009 (ip), vehicle: saline with Tween-80
[4] = dose: 100.0 mg/kg/injection, schedule: Q01DX009 (ip), vehicle: saline with Tween-80
[5] = dose: 200.0 mg/kg/injection, schedule: Q01DX009 (ip), vehicle: saline with Tween-80
[6] = dose: 25.0 mg/kg/injection, schedule: Q01DX005 (ip), vehicle: saline with Tween-80
[7] = dose: 60.0 mg/kg/injection, schedule: Q01DX005 (ip), vehicle: saline with Tween-80
[8] = dose: 120.0 mg/kg/injection, schedule: Q01DX005 (ip), vehicle: saline with Tween-80
[9] = dose: 240.0 mg/kg/injection, schedule: Q01DX005 (ip), vehicle: saline with Tween-80
[10] = dose: 50.0 mg/kg/injection, schedule: Q01DX005 (ip), vehicle: Klucel (hydroxypropylcellulose) (HPC)
[11] = dose: 100.0 mg/kg/injection, schedule: Q01DX005 (ip), vehicle: Klucel (hydroxypropylcellulose) (HPC)
[12] = dose: 200.0 mg/kg/injection, schedule: Q01DX009 (ip), vehicle: Klucel (hydroxypropylcellulose) (HPC)

SMILES: CC1(C)N=C(NN=C2CCCCC2)SP1(=O)NNc1ncccn1 (stereo not given)
- T/C (dose: 15.0 mg/kg/injection, schedule: Q01DX005 (ip), vehicle: Klucel (hydroxypropylcellulose) (HPC)): 102 % of control
- T/C (dose: 30.0 mg/kg/injection, schedule: Q01DX005 (ip), vehicle: Klucel (hydroxypropylcellulose) (HPC)): 103 % of control
- T/C (dose: 60.0 mg/kg/injection, schedule: Q01DX005 (ip), vehicle: Klucel (hydroxypropylcellulose) (HPC)): 98 % of control and 99 % of control

SMILES: c1ccc(C23CN(Cc4ccccc42)Cc2ccccc23)cc1
- T/C (dose: 100.0 mg/kg/injection, schedule: Q01DX001 (ip), vehicle: saline with Tween-80): 95 % of control
- T/C (dose: 200.0 mg/kg/injection, schedule: Q01DX001 (ip), vehicle: saline with Tween-80): 88 % of control

SMILES: O=C(Sc1ccccc1)C1CC=CCC1 (stereo not given)
- T/C [1]: 109 % of control
- T/C [2]: 105 % of control

SMILES: Nc1ccccc1-c1ccccc1N
- T/C (dose: 60.0 mg/kg/injection, schedule: Q01DX005 (ip), vehicle: suspension in saline): 99 % of control
- T/C (dose: 120.0 mg/kg/injection, schedule: Q01DX005 (ip), vehicle: suspension in saline): 103 % of control
- T/C (dose: 240.0 mg/kg/injection, schedule: Q01DX005 (ip), vehicle: suspension in saline): 90 % of control

SMILES: Cc1nnc2c(N)nccn12
- T/C (dose: 100.0 mg/kg/injection, schedule: Q01DX001 (ip), vehicle: Klucel (hydroxypropylcellulose) (HPC)): 94 % of control
- T/C (dose: 200.0 mg/kg/injection, schedule: Q01DX001 (ip), vehicle: Klucel (hydroxypropylcellulose) (HPC)): 96 % of control

SMILES: O=C1C2CSCN2C(=O)CN1CCN1CCOCC1 (stereo not given)
- T/C (dose: 60.0 mg/kg/injection, schedule: Q01DX005 (ip), vehicle: saline): 100 % of control
- T/C (dose: 120.0 mg/kg/injection, schedule: Q01DX005 (ip), vehicle: saline): 100 % of control
- T/C (dose: 240.0 mg/kg/injection, schedule: Q01DX005 (ip), vehicle: saline): 100 % of control

SMILES: Cc1ccc(C)c2c1C(=O)c1c(C)ccc(C)c1C2(O)C#Cc1ccccc1
- T/C [3]: 98 % of control
- T/C [4]: 89 % of control
- T/C [5]: 89 % of control

SMILES: CCN(CC#N)c1ccc(C=Nc2ccc(OC)cc2OC)cc1
- T/C [3]: 91 % of control
- T/C [4]: 93 % of control
- T/C [5]: 97 % of control

SMILES: O=[N+]([O-])c1ccc(/C=N/Nc2nnc(-c3ccccc3)c(-c3ccccc3)n2)o1
- T/C (dose: 12.5 mg/kg/injection, schedule: Q01DX005 (ip), vehicle: saline with Tween-80): 106 % of control
- T/C [6]: 103 % of control
- T/C (dose: 50.0 mg/kg/injection, schedule: Q01DX005 (ip), vehicle: saline with Tween-80): 93 % of control and 96 % of control
- T/C (dose: 200.0 mg/kg/injection, schedule: Q01DX005 (ip), vehicle: saline with Tween-80): 88 % of control

SMILES: CC(=O)CC(=O)CCC(=O)O
- T/C (dose: 25.0 mg/kg/injection, schedule: Q01DX009 (ip), vehicle: saline): 100 % of control
- T/C (dose: 50.0 mg/kg/injection, schedule: Q01DX009 (ip), vehicle: saline): 105 % of control
- T/C (dose: 100.0 mg/kg/injection, schedule: Q01DX009 (ip), vehicle: saline): 110 % of control
- T/C (dose: 200.0 mg/kg/injection, schedule: Q01DX009 (ip), vehicle: saline): 117 % of control
- T/C (dose: 400.0 mg/kg/injection, schedule: Q01DX009 (ip), vehicle: saline): 94 % of control

SMILES: Cc1ncc(O)c(C(=O)O)c1C(=O)O
- T/C (dose: 17.5 mg/kg/injection, schedule: Q01DX005 (ip), vehicle: Klucel (hydroxypropylcellulose) (HPC)): 100 % of control
- T/C (dose: 35.0 mg/kg/injection, schedule: Q01DX005 (ip), vehicle: Klucel (hydroxypropylcellulose) (HPC)): 103 % of control
- T/C (dose: 70.0 mg/kg/injection, schedule: Q01DX005 (ip), vehicle: Klucel (hydroxypropylcellulose) (HPC)): 100 % of control

SMILES: O=C(Nc1nnc(C(F)(F)F)s1)c1c(F)cccc1F
- T/C (dose: 12.5 mg/kg/injection, schedule: Q01DX009 (ip), vehicle: saline with Tween-80): 104 % of control
- T/C (dose: 25.0 mg/kg/injection, schedule: Q01DX009 (ip), vehicle: saline with Tween-80): 104 % of control
- T/C [3]: 99 % of control

SMILES: O=C1Nc2ccccc2/C1=N\N=c1/scc(-c2ccccc2)n1-c1ccccc1
- T/C [7]: 101 % of control and 89 % of control
- T/C [8]: 100 % of control
- T/C [9]: 101 % of control and 97 % of control

SMILES: O=C1/C(=C/c2ccccc2)CSC/C1=C\c1ccccc1
- T/C [10]: 91 % of control
- T/C [11]: 86 % of control

SMILES: Nc1ccc2ccc(NS(=O)(=O)N3CCCCC3)cc2c1
- T/C [6]: 108 % of control

SMILES: COc1cccc2c1C(=O)c1c(O)c3c(c(O)c1C2=O)C[C@@](O)(C(=O)CO)C[C@@H]3OC1CC(N)C(OC)C(C)O1 (stereo not given in full)
- T/C (dose: 0.39 mg/kg/injection, schedule: Q01DX009 (ip), vehicle: saline): 201 % of control
- T/C (dose: 0.65 mg/kg/injection, schedule: Q01DX009 (ip), vehicle: saline): 201 % of control
- T/C (dose: 1.08 mg/kg/injection, schedule: Q01DX009 (ip), vehicle: saline): 324 % of control
- T/C (dose: 1.08 mg/kg/injection, schedule: Q04DX003 (ip), vehicle: saline): 190 % of control
- T/C (dose: 1.8 mg/kg/injection, schedule: Q04DX003 (ip), vehicle: saline): 263 % of control
- T/C (dose: 3.0 mg/kg/injection, schedule: Q04DX003 (ip), vehicle: saline): 257 % of control
- T/C (dose: 3.13 mg/kg/injection, schedule: Q04DX003 (ip), vehicle: water): 172 % of control
- T/C (dose: 5.0 mg/kg/injection, schedule: Q04DX003 (ip), vehicle: saline): 163 % of control and 172 % of control
- T/C (dose: 12.5 mg/kg/injection, schedule: Q04DX003 (ip), vehicle: water): 90 % of control

SMILES: CNC(=S)NNc1cccc2ccccc12
- T/C (dose: 12.5 mg/kg/injection, schedule: Q01DX009 (ip), vehicle: other): 97 % of control
- T/C (dose: 25.0 mg/kg/injection, schedule: Q01DX009 (ip), vehicle: other): 101 % of control
- T/C (dose: 50.0 mg/kg/injection, schedule: Q01DX009 (ip), vehicle: other): 100 % of control
- T/C (dose: 100.0 mg/kg/injection, schedule: Q01DX009 (ip), vehicle: other): 103 % of control and 96 % of control
- T/C (dose: 200.0 mg/kg/injection, schedule: Q01DX009 (ip), vehicle: other): 103 % of control and 96 % of control
- T/C (dose: 400.0 mg/kg/injection, schedule: Q01DX009 (ip), vehicle: other): 94 % of control

SMILES: O=C(O)CCCC(=O)NC1CC2c3ccccc3C1c1ccccc12 (stereo not given)
- T/C (dose: 75.0 mg/kg/injection, schedule: Q01DX009 (ip), vehicle: saline with Tween-80): 100 % of control
- T/C (dose: 100.0 mg/kg/injection, schedule: Q04DX003 (ip), vehicle: saline sonified): 100 % of control
- T/C (dose: 150.0 mg/kg/injection, schedule: Q01DX009 (ip), vehicle: saline with Tween-80): 100 % of control
- T/C (dose: 200.0 mg/kg/injection, schedule: Q04DX003 (ip), vehicle: saline sonified): 105 % of control
- T/C (dose: 400.0 mg/kg/injection, schedule: Q04DX003 (ip), vehicle: saline sonified): 100 % of control

SMILES: OCCNCCN1CCN(CCCN2c3ccccc3Sc3ccc(C(F)(F)F)cc32)CC1
- T/C (dose: 3.12 mg/kg/injection, schedule: Q04DX003 (ip), vehicle: saline): 99 % of control
- T/C (dose: 6.25 mg/kg/injection, schedule: Q04DX003 (ip), vehicle: saline): 99 % of control and 101 % of control and 88 % of control
- T/C (dose: 12.5 mg/kg/injection, schedule: Q04DX003 (ip), vehicle: saline): 101 % of control and 102 % of control and 90 % of control
- T/C (dose: 25.0 mg/kg/injection, schedule: Q04DX003 (ip), vehicle: saline): 104 % of control and 106 % of control and 93 % of control

SMILES: O=C1NC(=O)C(=Cc2ccc([N+](=O)[O-])cc2)C(=O)N1
- T/C [10]: 107 % of control
- T/C [11]: 99 % of control
- T/C (dose: 200.0 mg/kg/injection, schedule: Q01DX005 (ip), vehicle: Klucel (hydroxypropylcellulose) (HPC)): 104 % of control

SMILES: O=c1oc2c(c(=O)n1-c1ccccc1)CC1(CCCCC1)C2
- T/C [1]: 103 % of control
- T/C [2]: 113 % of control
- T/C [12]: 105 % of control

SMILES: OC(c1ccncc1)c1cc(Cl)ccc1Cl (stereo not given)
- T/C [3]: 94 % of control
- T/C [4]: 100 % of control
- T/C [5]: 108 % of control

SMILES: CC1(C)CC(=N/O)/C(=N/O)C(=N\NC(N)=S)/C1
- T/C [7]: 97 % of control
- T/C [8]: 94 % of control
- T/C [9]: 97 % of control

SMILES: COc1ccc(/C=N/Nc2ccccc2)cc1
- T/C [3]: 99 % of control
- T/C [4]: 92 % of control
- T/C [5]: 99 % of control
- T/C (dose: 400.0 mg/kg/injection, schedule: Q01DX009 (ip), vehicle: saline with Tween-80): 94 % of control

SMILES: O=C(c1ccccc1)c1c(-c2ccccc2)c(C(=O)c2ccccc2)n2ccccc12
- T/C [1]: 108 % of control
- T/C [2]: 105 % of control
- T/C [12]: 93 % of control
